Assay results reported in the supplement of paper PMC13380429.

Legend:
Details in all cases: 72 h
[1] = system: Caco-2; experiment: cell viability relative to DMSO; higher = less toxic
[2] = system: Calu-3; experiment: as above
[3] = system: HepG2; experiment: as above
[4] = system: U2OS; experiment: as above
[5] = system: Vero E6; experiment: as above
[6] = system: Caco-2; experiment: relative viability EC50 (midpoint between 100% and the lowest measured viability); higher = less toxic
[7] = system: Calu-3; experiment: as above
[8] = system: U2OS; experiment: as above
[9] = system: Vero E6; experiment: as above
[10] = system: Caco-2; experiment: drug sensitivity score (DSS) for viability; higher = more toxic; extreme values may be limits of the assay
[11] = system: Calu-3; experiment: as above
[12] = system: HepG2; experiment: as above
[13] = system: U2OS; experiment: as above
[14] = system: Vero E6; experiment: as above

Structure (SMILES): COc1ccc2c(c1)/C(=C/c1cnc[nH]1)C(=O)N2 [SU9516]
- cell viability ([1]; 1 nM): 101%
- cell viability ([1]; 10 nM): 96%
- cell viability ([1]; 100 nM): 95.3%
- cell viability ([1]; 1000 nM): 105%
- cell viability ([1]; 10000 nM): 96.8%
- cell viability ([2]; 1 nM): 99.9%
- cell viability ([2]; 10 nM): 109%
- cell viability ([2]; 100 nM): 112%
- cell viability ([2]; 1000 nM): 122%
- cell viability ([2]; 10000 nM): 134%
- cell viability ([3]; 1 nM): 105%
- cell viability ([3]; 10 nM): 105%
- cell viability ([3]; 100 nM): 97.7%
- cell viability ([3]; 1000 nM): 90.8%
- cell viability ([3]; 10000 nM): 59.3%
- cell viability ([4]; 1 nM): 101%
- cell viability ([4]; 10 nM): 103%
- cell viability ([4]; 100 nM): 101%
- cell viability ([4]; 1000 nM): 106%
- cell viability ([4]; 10000 nM): 83.7%
- cell viability ([5]; 1 nM): 97.4%
- cell viability ([5]; 10 nM): 99.4%
- cell viability ([5]; 100 nM): 95.3%
- cell viability ([5]; 1000 nM): 104%
- cell viability ([5]; 10000 nM): 79%
- relative viability EC50 [6]: > 10 µM
- relative viability EC50 [7]: > 10 µM
- relative viability EC50 [8]: > 10 µM
- relative viability EC50 [9]: > 10 µM
- drug sensitivity score [10]: 0
- drug sensitivity score [11]: 0
- drug sensitivity score [12]: 3.5
- drug sensitivity score [13]: 0.2
- drug sensitivity score [14]: 0.5

Structure (SMILES): C#CCN(C)[C@H](C)Cc1ccccc1 [selegiline]
- drug sensitivity score [11]: 0
- drug sensitivity score [12]: 0
- drug sensitivity score [13]: 0
- drug sensitivity score [14]: 0

Structure (SMILES): CN/C(=N\CCSCc1nc[nH]c1C)NC#N [cimetidine]
- cell viability ([1]; 1 nM): 99.8%
- cell viability ([1]; 10 nM): 98.7%
- cell viability ([1]; 100 nM): 98.7%
- cell viability ([1]; 1000 nM): 106%
- cell viability ([1]; 10000 nM): 88.1%
- cell viability ([2]; 1 nM): 104%
- cell viability ([2]; 10 nM): 106%
- cell viability ([2]; 100 nM): 102%
- cell viability ([2]; 1000 nM): 101%
- cell viability ([2]; 10000 nM): 88.6%
- cell viability ([4]; 1 nM): 101%
- cell viability ([4]; 10 nM): 106%
- cell viability ([4]; 100 nM): 100%
- cell viability ([4]; 1000 nM): 104%
- cell viability ([4]; 10000 nM): 96.4%
- cell viability ([5]; 1 nM): 94.5%
- cell viability ([5]; 10 nM): 91.7%
- cell viability ([5]; 100 nM): 96.9%
- cell viability ([5]; 1000 nM): 91.3%
- cell viability ([5]; 10000 nM): 90%
- relative viability EC50 [6]: > 10 µM
- relative viability EC50 [7]: > 10 µM
- relative viability EC50 [8]: > 10 µM
- relative viability EC50 [9]: > 10 µM
- drug sensitivity score [10]: 0
- drug sensitivity score [11]: 0
- drug sensitivity score [13]: 0
- drug sensitivity score [14]: 0

Structure (SMILES): C[C@]12CC[C@H](O)C[C@H]1CC[C@@H]1[C@@H]2CC[C@]2(C)[C@@H](c3ccc(=O)oc3)C[C@H]3O[C@]132 [resibufogenin]
- cell viability ([1]; 1 nM): 96.3%
- cell viability ([1]; 10 nM): 98.8%
- cell viability ([1]; 100 nM): 106%
- cell viability ([1]; 1000 nM): 94.7%
- cell viability ([1]; 10000 nM): 25.1%
- cell viability ([2]; 1 nM): 102%
- cell viability ([2]; 10 nM): 94.8%
- cell viability ([2]; 100 nM): 106%
- cell viability ([2]; 1000 nM): 99.4%
- cell viability ([2]; 10000 nM): 45.7%
- cell viability ([3]; 1 nM): 115%
- cell viability ([3]; 10 nM): 100%
- cell viability ([3]; 100 nM): 109%
- cell viability ([3]; 1000 nM): 90.5%
- cell viability ([3]; 10000 nM): 63.6%
- cell viability ([4]; 1 nM): 97%
- cell viability ([4]; 10 nM): 104%
- cell viability ([4]; 100 nM): 98.9%
- cell viability ([4]; 1000 nM): 101%
- cell viability ([4]; 10000 nM): 6.5%
- cell viability ([5]; 1 nM): 106%
- cell viability ([5]; 10 nM): 101%
- cell viability ([5]; 100 nM): 102%
- cell viability ([5]; 1000 nM): 11.3%
- cell viability ([5]; 10000 nM): 2.1%
- relative viability EC50 [6]: 2.59 µM
- relative viability EC50 [7]: 3.09 µM
- relative viability EC50 [8]: 3.23 µM
- relative viability EC50 [9]: 0.426 µM
- drug sensitivity score [10]: 4.9
- drug sensitivity score [11]: 3
- drug sensitivity score [12]: 3.2
- drug sensitivity score [13]: 5.1
- drug sensitivity score [14]: 16

Structure (SMILES): Cc1ccc2c(N3CCN(CCc4cccc(N5CCNC5=O)c4)CC3)cccc2n1
- cell viability ([1]; 1 nM): 104%
- cell viability ([1]; 10 nM): 98%
- cell viability ([1]; 100 nM): 93.9%
- cell viability ([1]; 1000 nM): 101%
- cell viability ([1]; 10000 nM): 96%
- cell viability ([2]; 1 nM): 93.6%
- cell viability ([2]; 10 nM): 94.8%
- cell viability ([2]; 100 nM): 108%
- cell viability ([2]; 1000 nM): 99.2%
- cell viability ([2]; 10000 nM): 97.6%
- cell viability ([3]; 1 nM): 96.1%
- cell viability ([3]; 10 nM): 98.6%
- cell viability ([3]; 100 nM): 89.2%
- cell viability ([3]; 1000 nM): 92.8%
- cell viability ([3]; 10000 nM): 73.5%
- cell viability ([4]; 1 nM): 101%
- cell viability ([4]; 10 nM): 101%
- cell viability ([4]; 100 nM): 101%
- cell viability ([4]; 1000 nM): 95.5%
- cell viability ([4]; 10000 nM): 97.7%
- cell viability ([5]; 1 nM): 99.8%
- cell viability ([5]; 10 nM): 100%
- cell viability ([5]; 100 nM): 98.3%
- cell viability ([5]; 1000 nM): 103%
- cell viability ([5]; 10000 nM): 96.3%
- relative viability EC50 [6]: > 10 µM
- relative viability EC50 [7]: > 10 µM
- relative viability EC50 [8]: > 10 µM
- relative viability EC50 [9]: > 10 µM
- drug sensitivity score [10]: 0
- drug sensitivity score [11]: 0
- drug sensitivity score [12]: 1.7
- drug sensitivity score [13]: 0
- drug sensitivity score [14]: 0

Structure (SMILES): Fc1cccc(/C=N/N=C/c2cccc(F)c2)c1 [DFB]
- cell viability ([1]; 1 nM): 99.5%
- cell viability ([1]; 10 nM): 110%
- cell viability ([1]; 100 nM): 100%
- cell viability ([1]; 1000 nM): 102%
- cell viability ([1]; 10000 nM): 101%
- cell viability ([2]; 1 nM): 115%
- cell viability ([2]; 10 nM): 111%
- cell viability ([2]; 100 nM): 98.8%
- cell viability ([2]; 1000 nM): 105%
- cell viability ([2]; 10000 nM): 104%
- cell viability ([5]; 1 nM): 99.9%
- cell viability ([5]; 10 nM): 98.7%
- cell viability ([5]; 100 nM): 90%
- cell viability ([5]; 1000 nM): 97.3%
- cell viability ([5]; 10000 nM): 98.6%
- relative viability EC50 [6]: > 10 µM
- relative viability EC50 [7]: > 10 µM
- relative viability EC50 [9]: > 10 µM
- drug sensitivity score [10]: 0
- drug sensitivity score [11]: 0
- drug sensitivity score [14]: 0

Structure (SMILES): O=C(NN1C(=O)[C@@H]2[C@@H]3C=C[C@@H]([C@H]4C[C@@H]34)[C@@H]2C1=O)c1ccc(C(F)(F)F)cc1 [tecovirimat]
- cell viability ([1]; 1 nM): 109%
- cell viability ([1]; 10 nM): 104%
- cell viability ([1]; 100 nM): 105%
- cell viability ([1]; 1000 nM): 101%
- cell viability ([1]; 10000 nM): 94.2%
- cell viability ([2]; 1 nM): 99.7%
- cell viability ([2]; 10 nM): 90.3%
- cell viability ([2]; 100 nM): 103%
- cell viability ([2]; 1000 nM): 98.8%
- cell viability ([2]; 10000 nM): 100%
- cell viability ([4]; 1 nM): 107%
- cell viability ([4]; 10 nM): 107%
- cell viability ([4]; 100 nM): 107%
- cell viability ([4]; 1000 nM): 99.6%
- cell viability ([4]; 10000 nM): 104%
- cell viability ([5]; 1 nM): 98.5%
- cell viability ([5]; 10 nM): 104%
- cell viability ([5]; 100 nM): 93%
- cell viability ([5]; 1000 nM): 95.3%
- cell viability ([5]; 10000 nM): 101%
- relative viability EC50 [6]: > 10 µM
- relative viability EC50 [7]: > 10 µM
- relative viability EC50 [8]: > 10 µM
- relative viability EC50 [9]: > 10 µM
- drug sensitivity score [10]: 0
- drug sensitivity score [11]: 0
- drug sensitivity score [13]: 0
- drug sensitivity score [14]: 0

Structure (SMILES): Cc1ccc(S(=O)(=O)NC(=O)NN2CCCCCC2)cc1 [tolazamide]
- cell viability ([1]; 1 nM): 95.6%
- cell viability ([1]; 10 nM): 95%
- cell viability ([1]; 100 nM): 102%
- cell viability ([1]; 1000 nM): 93.8%
- cell viability ([1]; 10000 nM): 89.7%
- cell viability ([2]; 1 nM): 92.2%
- cell viability ([2]; 10 nM): 96.2%
- cell viability ([2]; 100 nM): 88%
- cell viability ([2]; 1000 nM): 79.5%
- cell viability ([2]; 10000 nM): 93.3%
- cell viability ([4]; 1 nM): 100%
- cell viability ([4]; 10 nM): 97%
- cell viability ([4]; 100 nM): 97%
- cell viability ([4]; 1000 nM): 99.2%
- cell viability ([4]; 10000 nM): 103%
- cell viability ([5]; 1 nM): 98.9%
- cell viability ([5]; 10 nM): 86.3%
- cell viability ([5]; 100 nM): 95.5%
- cell viability ([5]; 1000 nM): 98.3%
- cell viability ([5]; 10000 nM): 107%
- relative viability EC50 [6]: > 10 µM
- relative viability EC50 [7]: > 10 µM
- relative viability EC50 [8]: > 10 µM
- relative viability EC50 [9]: > 10 µM
- drug sensitivity score [10]: 0
- drug sensitivity score [11]: 0
- drug sensitivity score [13]: 0
- drug sensitivity score [14]: 0

Structure (SMILES): O=c1ncn2nc(Sc3ccc(F)cc3F)ccc2c1-c1c(Cl)cccc1Cl [VX-745]
- cell viability ([1]; 1 nM): 107%
- cell viability ([1]; 10 nM): 96.5%
- cell viability ([1]; 100 nM): 104%
- cell viability ([1]; 1000 nM): 99.7%
- cell viability ([1]; 10000 nM): 82.6%
- cell viability ([2]; 1 nM): 97.1%
- cell viability ([2]; 10 nM): 107%
- cell viability ([2]; 100 nM): 98.7%
- cell viability ([2]; 1000 nM): 82.9%
- cell viability ([2]; 10000 nM): 95%
- cell viability ([4]; 1 nM): 102%
- cell viability ([4]; 10 nM): 108%
- cell viability ([4]; 100 nM): 98.4%
- cell viability ([4]; 1000 nM): 94.9%
- cell viability ([4]; 10000 nM): 87.9%
- cell viability ([5]; 1 nM): 106%
- cell viability ([5]; 10 nM): 105%
- cell viability ([5]; 100 nM): 95.8%
- cell viability ([5]; 1000 nM): 86.1%
- cell viability ([5]; 10000 nM): 86.1%
- relative viability EC50 [6]: > 10 µM
- relative viability EC50 [7]: > 10 µM
- relative viability EC50 [8]: > 10 µM
- relative viability EC50 [9]: > 10 µM
- drug sensitivity score [10]: 0.4
- drug sensitivity score [11]: 2.1
- drug sensitivity score [13]: 0.1
- drug sensitivity score [14]: 1.4
